Source: patent publication US20240294595A1, “GLYCOPEPTIDES AND USES THEREOF” (Arizona Board of Regents on Behalf of the University of …, priority 2013, published 2024)
Where a SMILES comes first, the peptide text is derived from it. [ ]: non-standard residue; d: D form. The star is where a group is joined. βGlc = OC[C@H]1O[C@@H](*)[C@H](O)[C@@H](O)[C@@H]1O; Nle = CCCC[C@H](N)C(=O)O

What was measured:
Format in all cases: cell-based
[1] = molecular target: T1, VPAC1 (Homo sapiens, UniProt P32241); experiment: VPAC1 agonist data (Table 2)
T1 sequence (P32241 31-457): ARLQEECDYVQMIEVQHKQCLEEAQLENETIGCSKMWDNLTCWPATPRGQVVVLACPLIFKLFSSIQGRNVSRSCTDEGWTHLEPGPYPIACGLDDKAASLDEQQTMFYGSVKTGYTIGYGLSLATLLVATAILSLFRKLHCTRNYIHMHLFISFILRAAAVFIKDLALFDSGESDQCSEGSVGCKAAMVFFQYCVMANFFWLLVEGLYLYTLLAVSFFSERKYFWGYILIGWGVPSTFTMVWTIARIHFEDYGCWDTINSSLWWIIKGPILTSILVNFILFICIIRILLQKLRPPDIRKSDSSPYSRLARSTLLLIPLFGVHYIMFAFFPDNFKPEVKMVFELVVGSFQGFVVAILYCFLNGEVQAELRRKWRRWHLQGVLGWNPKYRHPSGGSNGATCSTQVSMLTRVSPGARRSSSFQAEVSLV

[2] = molecular target: T2, VPAC2 (Homo sapiens, UniProt P41587); experiment: VPAC2 agonist data (Table 2)
T2 sequence (P41587 24-438): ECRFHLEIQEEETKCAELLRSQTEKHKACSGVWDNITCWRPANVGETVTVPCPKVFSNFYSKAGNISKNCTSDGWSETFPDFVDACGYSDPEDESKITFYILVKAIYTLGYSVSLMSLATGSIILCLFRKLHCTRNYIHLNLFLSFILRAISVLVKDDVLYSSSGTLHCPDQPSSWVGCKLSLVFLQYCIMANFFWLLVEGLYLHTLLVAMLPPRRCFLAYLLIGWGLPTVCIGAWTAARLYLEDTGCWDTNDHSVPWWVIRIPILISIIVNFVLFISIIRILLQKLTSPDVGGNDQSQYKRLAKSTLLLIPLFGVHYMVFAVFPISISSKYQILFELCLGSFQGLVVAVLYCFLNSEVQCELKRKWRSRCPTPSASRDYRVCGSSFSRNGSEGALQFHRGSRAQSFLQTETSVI

[3] = molecular target: T3, PAC1 (Homo sapiens, UniProt P41586); experiment: PAC1 agonist data (Table 2); set-up: host or cells: CHO (clonal line PAC1-CHO)
T3 sequence (P41586 21-468): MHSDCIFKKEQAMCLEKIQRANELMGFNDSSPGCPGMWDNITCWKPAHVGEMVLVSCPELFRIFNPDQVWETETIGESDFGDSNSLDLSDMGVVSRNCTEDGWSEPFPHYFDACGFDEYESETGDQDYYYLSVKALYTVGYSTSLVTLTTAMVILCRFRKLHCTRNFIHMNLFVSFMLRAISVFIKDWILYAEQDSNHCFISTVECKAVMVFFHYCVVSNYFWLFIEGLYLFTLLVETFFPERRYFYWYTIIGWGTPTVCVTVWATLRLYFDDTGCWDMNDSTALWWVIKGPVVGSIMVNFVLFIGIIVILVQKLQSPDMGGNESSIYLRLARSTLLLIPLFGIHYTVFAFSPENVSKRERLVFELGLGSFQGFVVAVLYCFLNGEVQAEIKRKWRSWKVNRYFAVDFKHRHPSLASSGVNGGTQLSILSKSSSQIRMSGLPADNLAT
Protocol: A custom DNA clone of the human PAC1 gene with 3 hemagglutinin (HA) tags inserted 3′ to the signal peptide sequence (to avoid proteolytic loss) was obtained from Genecopoeia (Rockville, MD). The construct was electroporated into Chinese Hamster Ovary (CHO) cells, and selected for with 500 μg/mL of G418. The resulting population was screened for high expressing clones, and one such clone selected for further analysis. […] This cell line was used for all molecular pharmacology experiments. The cells were maintained in DMEM/F12 with 10% heat-inactivated FBS, 1× penicillin/streptomycin, and 500 μg/mL G418, at 37° C. and 5% CO2.
All molecular pharmacology experiments were carried out using a FLIPR Tetra from Molecular Devices (Sunnyvale, CA), set to image calcium flux using the manufacturer's recommended settings and protocols. The day before an experiment, the PAC1-CHO cells were split into 384 well black walled, clear bottom microplates, 10,000 cells per well. The cells were recovered overnight in growth medium (as above). The next day, the growth medium was replaced with Calcium 6 dye (Molecular Devices) using the manufacturer recommended buffer with 2.5 mM probenecid. The cells were incubated for 2 hours in the culture incubator, and removed during the last 15 minutes to allow equilibration to room temperature. Compound as indicated below was added to the cells using a 384 tip block, with real time monitoring before, during, and 15 minutes after compound addition. The resulting calcium flux was recorded, and the maximum-minimum response over the entire observation time calculated and reported as the mean±SEM (4 wells per point).
For agonist mode experiments, compound was added in an 11 point concentration curve, with a vehicle control (buffer). […] The response was analyzed using a 3 variable non-linear curve fit, and the EC50 (nM) and EMax (%) calculated and reported (Prism, GraphPad, La Jolla, CA).

Compound	EC50 [1]	Emax [1]	EC50 [2]	Emax [2]	EC50 [3]	Emax [3]
CCCC[C@H](NC(=O)[C@H](CCC(N)=O)NC(=O)[C@H](CCCCN)NC(=O)[C@H](CCCNC(=N)N)NC(=O)[C@H](Cc1ccc(O)cc1)NC(=O)[C@H](CCCNC(=N)N)NC(=O)[C@H](CO)NC(=O)[C@H](Cc1ccc(O)cc1)NC(=O)[C@H](CO)NC(=O)[C@H](CC(=O)O)NC(=O)[C@@H](NC(=O)[C@H](Cc1ccccc1)NC(=O)[C@@H](NC(=O)CNC(=O)[C@H](CC(=O)O)NC(=O)[C@@H](CO)NC(=O)[C@@H](N)Cc1c[nH]cn1)[C@@H](C)CC)[C@@H](C)O)C(=O)N[C@@H](C)C(=O)N[C@H](C(=O)N[C@@H](CCCCN)C(=O)N[C@@H](CCCCN)C(=O)N[C@@H](Cc1ccc(O)cc1)C(=O)N[C@@H](CC(C)C)C(=O)N[C@@H](C)C(=O)N[C@@H](C)C(=O)N[C@H](C(=O)N[C@@H](CO[C@@H]1O[C@H](CO)[C@@H](O)[C@H](O)[C@H]1O)C(N)=O)C(C)C)C(C)C	4.8 nM	90%	654 nM	107%	54.5 nM	86%
CCCC[C@H](NC(=O)[C@H](CCC(N)=O)NC(=O)[C@H](CCCCN)NC(=O)[C@H](CCCNC(=N)N)NC(=O)[C@H](Cc1ccc(O)cc1)NC(=O)[C@H](CCCNC(=N)N)NC(=O)[C@H](CO)NC(=O)[C@H](Cc1ccc(O)cc1)NC(=O)[C@H](CO)NC(=O)[C@H](CC(=O)O)NC(=O)[C@@H](NC(=O)[C@H](Cc1ccccc1)NC(=O)[C@@H](NC(=O)CNC(=O)[C@H](CC(=O)O)NC(=O)[C@@H](CO)NC(=O)[C@@H](N)Cc1c[nH]cn1)[C@@H](C)CC)[C@@H](C)O)C(=O)N[C@@H](C)C(=O)N[C@H](C(=O)N[C@@H](CCCCN)C(=O)N[C@@H](CCCCN)C(=O)N[C@@H](Cc1ccc(O)cc1)C(=O)N[C@@H](CC(C)C)C(=O)N[C@@H](C)C(=O)N[C@@H](C)C(=O)N[C@H](C(=O)N[C@@H](CC(C)C)C(=O)N[C@@H](CO[C@@H]1O[C@H](CO)[C@@H](O)[C@H](O)[C@H]1O)C(N)=O)C(C)C)C(C)C	1.3 nM	90%	241 nM	104%	25.5 nM	85%
CCCC[C@H](NC(=O)[C@H](CCC(N)=O)NC(=O)[C@H](CCCCN)NC(=O)[C@H](CCCNC(=N)N)NC(=O)[C@H](Cc1ccc(O)cc1)NC(=O)[C@H](CCCNC(=N)N)NC(=O)[C@H](CO)NC(=O)[C@H](Cc1ccc(O)cc1)NC(=O)[C@H](CO)NC(=O)[C@H](CC(=O)O)NC(=O)[C@H](C)NC(=O)[C@H](Cc1ccccc1)NC(=O)[C@@H](NC(=O)CNC(=O)[C@H](CC(=O)O)NC(=O)[C@@H](CO)NC(=O)[C@@H](N)Cc1c[nH]cn1)[C@@H](C)CC)C(=O)N[C@@H](C)C(=O)N[C@H](C(=O)N[C@@H](CCCCN)C(=O)N[C@@H](CCCCN)C(=O)N[C@@H](Cc1ccc(O)cc1)C(=O)N[C@@H](CC(C)C)C(=O)N[C@@H](C)C(=O)N[C@@H](C)C(=O)N[C@H](C(=O)N[C@@H](CO[C@@H]1O[C@H](CO)[C@@H](O)[C@H](O)[C@H]1O)C(N)=O)C(C)C)C(C)C (H-H[dS]DGIFADSYSRYRKQ[Nle]AVKKYLAAVS(βGlc)-NH2; C-terminus assumed)	1370 nM	85%				
CCCC[C@H](NC(=O)[C@H](CCC(N)=O)NC(=O)[C@H](CCCCN)NC(=O)[C@H](CCCNC(=N)N)NC(=O)[C@H](Cc1ccc(O)cc1)NC(=O)[C@H](CCCNC(=N)N)NC(=O)[C@H](CO)NC(=O)[C@H](Cc1ccc(O)cc1)NC(=O)[C@H](CO)NC(=O)[C@H](CC(=O)O)NC(=O)[C@H](C)NC(=O)[C@H](Cc1ccccc1)NC(=O)[C@@H](NC(=O)CNC(=O)[C@H](CC(=O)O)NC(=O)[C@@H](CO)NC(=O)[C@@H](N)Cc1c[nH]cn1)[C@@H](C)CC)C(=O)N[C@@H](C)C(=O)N[C@H](C(=O)N[C@@H](CCCCN)C(=O)N[C@@H](CCCCN)C(=O)N[C@@H](Cc1ccc(O)cc1)C(=O)N[C@@H](CC(C)C)C(=O)N[C@@H](C)C(=O)N[C@@H](C)C(=O)N[C@H](C(=O)N[C@@H](CO[C@@H]1O[C@H](CO)[C@@H](O)[C@H](O)[C@H]1O)C(=O)N[C@@H](CC(C)C)C(N)=O)C(C)C)C(C)C (H-H[dS]DGIFADSYSRYRKQ[Nle]AVKKYLAAVS(βGlc)L-NH2; C-terminus assumed)	1620 nM	78%				
CCCC[C@H](NC(=O)[C@H](CCC(N)=O)NC(=O)[C@H](CCCCN)NC(=O)[C@H](CCCNC(=N)N)NC(=O)[C@H](Cc1ccc(O)cc1)NC(=O)[C@H](CCCNC(=N)N)NC(=O)[C@H](CO)NC(=O)[C@H](Cc1ccc(O)cc1)NC(=O)[C@H](CO)NC(=O)[C@H](CC(=O)O)NC(=O)[C@@H](NC(=O)[C@H](Cc1ccccc1)NC(=O)[C@@H](NC(=O)CNC(=O)[C@H](CC(=O)O)NC(=O)[C@@H](CO)NC(=O)[C@@H](N)Cc1c[nH]cn1)[C@@H](C)CC)[C@@H](C)O)C(=O)N[C@@H](C)C(=O)N[C@H](C(=O)N[C@@H](CCCCN)C(=O)N[C@@H](CCCCN)C(=O)N[C@@H](Cc1ccc(O)cc1)C(=O)N[C@@H](CC(C)C)C(=O)N[C@@H](C)C(=O)N[C@@H](C)C(=O)N[C@@H](CC(C)C)C(=O)N[C@@H](CO[C@@H]1O[C@H](CO)[C@@H](O)[C@H](O)[C@H]1O)C(=O)N[C@@H](CC(C)C)C(N)=O)C(C)C (H-H[dS]DGIFTDSYSRYRKQ[Nle]AVKKYLAALS(βGlc)L-NH2; C-terminus assumed)	5.9 nM	93%	> 2500 nM	-95%	> 250 nM	-79%
